The results in this text go back to ChEMBL document CHEMBL1201862, “PubChem BioAssay data set” (2004).

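How tested: cells in 96-well plates exposed to compound for 48 hours at five concentrations. Abbreviation: GI50, concentration required for 50% inhibition of growth.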 The source made the active and inactive calls. No stated cut-off is given here; in the data, active = GI50 up to about 1.1 µM and inactive = higher.

Test in all cases: inhibition of tumour cell growth, NCI panel, 48 h
Experiment [1] concerns A498.
For experiment [2], the system named is HCC 2998.
Experiment [3] relates to HCT-116.
In experiment [4] the test system is HL-60.
Experiment [5] relates to HOP-62.
Experiment [6] deals with KM12.
Experiment [7] relates to MDA-MB-435.
Experiment [8] concerns MOLT-4.
The test system of experiment [9] is NCI-H23.
Experiment [10] relates to OVCAR-3.
The subject of experiment [11] is OVCAR-8.
The subject of experiment [12] is RPMI-8226.
For experiment [13], the system named is RXF 393.
Experiment [14] concerns SK-MEL-5.
The subject of experiment [15] is SR.
In experiment [16] the test system is SW-620.
Experiment [17] relates to U-251.
Experiment [18] relates to UO-31.
In experiment [19] the test system is IGROV-1.
Experiment [20] deals with PC-3.

As for `O=C1/C(=C\c2cccc(Oc3ccccc3)c2)SC(c2ccccc2)N1c1ccccc1Cl` (stereo not given), the GI50 is 46.1 µM (inactive) in [1]; 17.5 µM (inactive) in experiment [2]; 14.9 µM (inactive) in experiment [3]; 30.2 µM (inactive) in experiment [4]; 28.8 µM (inactive) in experiment [5]; 23 µM (inactive) in [6]. In addition, the GI50 was 23.3 µM (inactive) in experiment [7]; 34.8 µM (inactive) in experiment [8]; 17.5 µM (inactive) in [9]; 23.7 µM (inactive) in experiment [10]; 21.9 µM (inactive) in experiment [11]; 13 µM (inactive) in experiment [12]. Also, the GI50 in [13] is 20.8 µM (inactive); in experiment [14] it was 15.1 µM (inactive); in experiment [15], 19.3 µM (inactive); in experiment [16], 33.3 µM (inactive); in experiment [17] it was 16.4 µM (inactive); in experiment [18], 31 µM (inactive).

As for `O=S(=O)(N/C(=N\O)Nc1ccc(Cl)cc1)c1cc(C(F)(F)F)cc(C(F)(F)F)c1`, the GI50 in [3] was 17.5 µM (inactive); in experiment [4], 24.3 µM (inactive); in experiment [5], 18.7 µM (inactive); in [19], 16.9 µM (inactive); in [6], 19.7 µM (inactive); in experiment [7], 20.3 µM (inactive). The GI50 was 19 µM (inactive) in experiment [8]; 19.9 µM (inactive) in experiment [9]; 16 µM (inactive) in [10]; 18.7 µM (inactive) in [11]; 17.5 µM (inactive) in experiment [20]; 19 µM (inactive) in experiment [13]. Moreover, the GI50 in experiment [14] was 18 µM (inactive); in [16], 34.3 µM (inactive); in [17], 16.6 µM (inactive).

Regarding `O=C(NCCCCN(CCCNC(=O)C(F)(F)F)Cc1ccc2ccccc2c1)C(F)(F)F`, the GI50 in [1] was 20.3 µM (inactive); in experiment [2] it was 13.9 µM (inactive); in [3] it was 16 µM (inactive); in experiment [4] it was 65.2 µM (inactive); in experiment [19] it was 17.2 µM (inactive); in experiment [6], 17.5 µM (inactive). Further, the GI50 was 19.3 µM (inactive) in experiment [7]; 24.2 µM (inactive) in [8]; 20.1 µM (inactive) in experiment [9]; 16.9 µM (inactive) in experiment [11]; > 10 µM (inactive) in experiment [12]; 17.5 µM (inactive) in experiment [13]. In addition, the GI50 is 19.2 µM (inactive) in experiment [14], 15.3 µM (inactive) in [16], 26.4 µM (inactive) in experiment [17] and 8.04 µM (inactive) in experiment [18].

For the compound `CC1(C)CC(=O)C2=C(C1)NC(SCC(=O)O)=C(C#N)C2c1ccc(Br)cc1` (stereo not given), the GI50 in [1], in experiment [2], in experiment [3], in [4], in [5] and in [19] was > 100 µM (inactive) each time. In addition, the GI50 in [6], in experiment [7], in experiment [9], in [10], in experiment [11] and in [20] was > 100 µM (inactive) throughout. Moreover, the GI50 in [13] was > 100 µM (inactive); in experiment [14], > 100 µM (inactive); in experiment [16] it was > 100 µM (inactive); in experiment [17] it was > 100 µM (inactive); in experiment [18], 4.56 µM (inactive).

With `[N-]=[N+]=Nc1ccc(NCCCCCC(=O)ON2C(=O)CCC2=O)c([N+](=O)[O-])c1`, the GI50 in experiment [3] is 39.6 µM (inactive); in experiment [4] it was 32.5 µM (inactive); in experiment [5] it was 72.9 µM (inactive); in experiment [19], > 100 µM (inactive); in experiment [6], 46.2 µM (inactive); in [7] it was 48.1 µM (inactive). Further, the GI50 in experiment [8] is 15.4 µM (inactive); in experiment [9], 66.7 µM (inactive); in experiment [10], 54.3 µM (inactive); in experiment [11], 60.3 µM (inactive); in [20] it was 28.5 µM (inactive); in experiment [13], 40.8 µM (inactive). Also, the GI50 is 41.1 µM (inactive) in experiment [14], 60.1 µM (inactive) in experiment [16], > 100 µM (inactive) in experiment [17] and 46.3 µM (inactive) in experiment [18].

Take `COC(=O)c1sc(=S)sc1SCc1ccccc1CSc1sc(=S)sc1C(=O)OC`: the GI50 in [1] is > 100 µM (inactive); in [2], > 100 µM (inactive); in experiment [3], > 100 µM (inactive); in [5] it was 85.7 µM (inactive); in experiment [19], > 100 µM (inactive); in experiment [6], > 100 µM (inactive). In addition, the GI50 in experiment [7], in experiment [8], in experiment [9], in experiment [10], in [11] and in experiment [20] was > 100 µM (inactive) throughout. For the same compound, the GI50 in [13] was 44.3 µM (inactive); in experiment [14] it was > 100 µM (inactive); in experiment [16], > 100 µM (inactive); in experiment [17] it was > 100 µM (inactive); in experiment [18], > 100 µM (inactive).

For `CC(C)SC(NC(=O)C1C(C)(C)CCC1(C)C)C(=O)O` (stereo not given), the GI50 in experiment [1], in experiment [2], in [3], in [4], in experiment [5] and in experiment [19] was > 100 µM (inactive) in each case. The GI50 was > 100 µM (inactive) in experiment [7]; > 10 µM (inactive) in experiment [8]; > 100 µM (inactive) in experiment [9]; > 100 µM (inactive) in experiment [11]; > 100 µM (inactive) in experiment [20]; > 100 µM (inactive) in experiment [12]. Also, the GI50 in experiment [14], in experiment [16], in [17] and in experiment [18] was > 100 µM (inactive) each time.

As for `CN(C)CCCOc1nc2c(c(=O)n(C)c(=O)n2C)n1C.SC1=NC=NC2=NC=NC12`, the GI50 in experiment [1] is 32.8 µM (inactive); in [3], 5.62 µM (inactive); in experiment [5], 18.5 µM (inactive); in experiment [19], 5.93 µM (inactive); in experiment [6] it was 3.85 µM (inactive); in experiment [7], 1.7 µM (inactive). Besides, the GI50 in experiment [8] is 0.43 µM (active); in experiment [9], 6.71 µM (inactive); in [10], 0.656 µM (active); in [11], 22.2 µM (inactive); in experiment [20] it was 8.53 µM (inactive); in experiment [12], 0.757 µM (active). Besides, the GI50 in experiment [13] is > 100 µM (inactive); in [14], 11.1 µM (inactive); in [16] it was 4.45 µM (inactive); in experiment [17] it was 18.1 µM (inactive); in experiment [18] it was 3.73 µM (inactive).

Consider `CCOC(=O)c1c(N)sc2c1C(C(=O)OCC)CC2` (stereo not given), for which the GI50 in [1] is 14.3 µM (inactive); in [2], > 100 µM (inactive); in experiment [3], 48.4 µM (inactive); in experiment [4], 31.5 µM (inactive); in [5], > 100 µM (inactive); in [19] it was 44.7 µM (inactive). For the same compound, the GI50 in [6] is > 100 µM (inactive); in experiment [8] it was 35.6 µM (inactive); in experiment [9], > 100 µM (inactive); in experiment [11], > 100 µM (inactive); in [20], 34.4 µM (inactive); in experiment [12] it was 45.3 µM (inactive). Moreover, the GI50 is > 100 µM (inactive) in [13]; > 100 µM (inactive) in experiment [14]; 40 µM (inactive) in experiment [15]; > 100 µM (inactive) in experiment [16]; 73.3 µM (inactive) in experiment [17]; 62.4 µM (inactive) in experiment [18].
